Data published in the supplement of paper PMC10307832.

What was measured:
Assay in all cases: relative viability (nuclei count vs DMSO), 5 days (fraction); higher = more cells survive
RO-3306 + Palbociclib = compound: C1=CC2=C(C=CC(=C2)C=C3C(=O)NC(=NCC4=CC=CS4)S3)N=C1 [RO-3306] + CC(=O)c1c(C)c2cnc(Nc3ccc(N4CCNCC4)cn3)nc2n(C2CCCC2)c1=O [Palbociclib] (partner 0.5 µM)
Procedure, shortened: (§1)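 Lung cancer cell lines in 1536-well plates were dosed by pin tool the day after seeding, either with one drug alone or with a fixed anchor-drug dose plus five library-drug doses (not always all listed) in √10 steps. After 5 days, cells were fixed and their nuclei stained in one step (final 0.05% Triton X-100, 1% formaldehyde, 1 ug/ml Hoechst), then counted on 4× images. Relative viability is the nuclei count in treated wells divided by that in vehicle wells. Values are medians of duplicate plates.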

RO-3306 + Lapatinib = compound: C1=CC2=C(C=CC(=C2)C=C3C(=O)NC(=NCC4=CC=CS4)S3)N=C1 [RO-3306] + CS(=O)(=O)CCNCc1ccc(-c2ccc3ncnc(Nc4ccc(OCc5cccc(F)c5)c(Cl)c4)c3c2)o1 [Lapatinib] (partner 2 µM)
Procedure, shortened: as §1

[1] = compound: O=S(=O)(c1ccccc1)N(CC(F)(F)F)c1ccc(C(O)(C(F)(F)F)C(F)(F)F)cc1 + CC(C)C[C@H](NC(=O)[C@H](Cc1ccccc1)NC(=O)c1cnccn1)B(O)O [Bortezomib] (partner 0.002 µM)
Procedure, shortened: as §1

[2] = compound: O=S(=O)(c1ccccc1)N(CC(F)(F)F)c1ccc(C(O)(C(F)(F)F)C(F)(F)F)cc1 + CS(=O)(=O)CCNCc1ccc(-c2ccc3ncnc(Nc4ccc(OCc5cccc(F)c5)c(Cl)c4)c3c2)o1 [Lapatinib] (partner 2 µM)
Procedure, shortened: as §1

[3] = compound: O=S(=O)(c1ccccc1)N(CC(F)(F)F)c1ccc(C(O)(C(F)(F)F)C(F)(F)F)cc1 + CS(=O)(=O)N1CCN(Cc2cc3nc(-c4cccc5[nH]ncc45)nc(N4CCOCC4)c3s2)CC1 [Pictilisib] (partner 1 µM)
Procedure, shortened: as §1

Row | Cell Line | relative viability (RO-3306 + Palbociclib; first compound 0.01 µM) | relative viability (RO-3306 + Palbociclib; first compound 0.03162 µM) | relative viability (RO-3306 + Palbociclib; first compound 0.1 µM) | relative viability (RO-3306 + Palbociclib; first compound 0.3162 µM) | relative viability (RO-3306 + Palbociclib; first compound 1 µM) | relative viability (RO-3306 + Lapatinib; first compound 0.01 µM) | relative viability (RO-3306 + Lapatinib; first compound 0.03162 µM) | relative viability (RO-3306 + Lapatinib; first compound 0.1 µM) | relative viability (RO-3306 + Lapatinib; first compound 0.3162 µM) | relative viability (RO-3306 + Lapatinib; first compound 1 µM) | relative viability ([1]; first compound 0.8 µM) | relative viability ([1]; first compound 2.53 µM) | relative viability ([1]; first compound 8 µM) | relative viability ([2]; first compound 0.8 µM) | relative viability ([2]; first compound 2.53 µM) | relative viability ([2]; first compound 8 µM) | relative viability ([3]; first compound 0.8 µM) | relative viability ([3]; first compound 2.53 µM) | relative viability ([3]; first compound 8 µM)
1 | EMC-BAC-2 | 0.501 | 0.461 | 0.514 | 0.516 | 0.494 | 0.943 | 0.722 | 0.916 | 0.892 | 0.871 | 1.07 | 1.1 | 1.02 | 0.975 | 0.864 | 0.904 | 0.626 | 0.561 | 0.634
2 | HCC-15 | 0.787 | 0.606 | 0.677 | 0.669 | 0.742 | 0.919 | 0.779 | 0.84 | 0.893 | 0.592 | 1.08 | 0.923 | 0.948 | 0.933 | 0.866 | 0.748 | 0.785 | 0.684 | 0.654
3 | EKVX | 0.346 | 0.37 | 0.332 | 0.447 | 0.393 | 0.173 | 0.187 | 0.237 | 0.192 | 0.148 | 1.1 | 0.918 | 1.15 | 0.187 | 0.188 | 0.171 | 0.367 | 0.363 | 0.303
4 | PC-14 | 0.654 | 0.4 | 0.494 | 0.538 | 0.577 | 0.326 | 0.395 | 0.312 | 0.317 | 0.295 | 0.986 | 0.88 | 0.496 | 0.26 | 0.191 | 0.223 | 0.743 | 0.557 | 0.339
5 | LCLC-97TM1 | 0.203 | 0.218 | 0.237 | 0.214 | 0.194 | – | 0.794 | 0.949 | 1.22 | 1.09 | 0.397 | 0.457 | 0.723 | 1.09 | 0.653 | 0.71 | 0.174 | 0.218 | 0.187
6 | NCI-H520 | 0.254 | 0.224 | 0.235 | 0.261 | 0.267 | 1.01 | 0.638 | 0.806 | 0.734 | 0.754 | 0.962 | 0.785 | 0.626 | 1.07 | 0.84 | 1.01 | 0.31 | 0.258 | 0.387
7 | NCI-H2405 | 0.553 | 0.45 | 0.562 | 0.518 | 0.494 | 1.03 | 1.04 | 1.01 | 1.09 | 1.01 | 1.02 | 0.952 | 0.885 | 1.01 | 0.962 | 1.15 | 0.471 | 0.455 | 0.418
8 | EPLC-272H | 0.254 | – | 0.342 | 0.304 | 0.302 | 0.789 | 0.595 | 0.803 | 0.768 | 0.849 | 0.964 | 0.899 | 0.656 | 1.05 | 0.818 | 0.924 | 0.316 | 0.302 | 0.35
